Source: patent US5409946A, “Isoxazole, isothiazole and pyrazole compounds that enhance cognitive function” (Abbott Laboratories, priority 1993, dated 1995)
Where two headings read alike, the source gives them in different places.

Experiments:
spike wave discharges = test: Attenuation of petit mal absence-like spike wave discharges (EEG); type: in vivo, male Wistar rats; conditions: for effect on incidence of spike wave discharges: i.p., 20 min waking immobility, p<0.05 where significant; for Total spike wave duration: 5.0 μmol/kg i.p.
Protocol: Animals: Male albino rats of the Wistar strain (CAMM Research) were maintained on a 12:12 hour light-dark cycle and individually housed throughout these experiments. They were fed standard rodent diet with food and water provided ad libitum.
EEG Recordings: To record spike wave discharges, rats were surgically implanted with permanently affixed EEG electrodes over the frontal codex using previously described techniques (Radek, Brain Res., 1993, in press). After at least a ten day recovery from this surgery, EEG recordings were made inside darkened sound attenuating chambers. Rats were allowed to move freely within the chambers and computerized activity monitors recorded animal motion during these studies. Only those rats that express spike wave discharges, as identified from preliminary recordings, were used to test the effects of nicotinic agents.
Drug studies: EEG recordings were obtained from each rat for a period of 20 minutes of total waking immobility immediately after administration of drug, or a drug-free control solution. Immobility was characterized as the absence of infrared beam interruptions from the activity monitor system. Spike wave activity was identified as regular 6-10 Hz complexes with amplitudes of 0.4 to 1.0 mV. The total spindling duration for 20 minutes of waking immobility was calculated by determining the length (in seconds) of each spike wave burst, and adding each of these times together to obtain a total spindle time for the recording session. Each rat was administered the control solution and one or two doses of the test compounds and each dosing was given at least 48 hours after the previous treatment.
The compound of Example 2 was dissolved in saline to the desired concentration.

ethanol-induced narcosis = conditions: literature knowledge; cited from earlier work
[1] = system: resting cortical perfusion in the parietotemporal cortex; conditions: humans; cited from earlier work
[2] = system: neuronal nicotinic cholinergic channels in PC12 cells; test: Cholinergic channel activator action in PC12 cells, whole-cell patch-clamp; type: cell-based, rat; conditions: 10 μM antagonist; Example 2 300 μM; N=3
Protocol: Electrophysiologic recordings were obtained from differentiated (neurite-bearing) cells after 4-7 days exposure to NGF. […] After 20 minutes, differentiating medium was added (DMEM containing 100 ng/ml nerve growth factor, 5% heat-inactivated fetal calf serum and 2.5% heat-inactivated horse serum) and the cells were refed with this medium every 3 days.
The intracellular (recording pipette) solution consisted of 140 mM KCl, 1.0 mM CaCl2, 2.0 mM MgCl2, 11 mM K-EGTA, and 10 mM K-HEPES buffer (7.3 pH, 315 mOsm). Osmolarities were adjusted using dextrose such that the extracellular solution was 10 mOsm hypertonic compared to the intracellular solution. Voltage-gated inward (sodium) and outward (potassium) currents were monitored throughout the experiment to determine establishment and maintenance of the whole-cell recording configuration.

nicotinic receptors = conditions: chronic administration, without affecting affinity; cited from earlier work
[3] = cited from earlier work; for pharmacokinetics: in vivo
[4] = system: signs and symptoms of nicotine withdrawal; conditions: double-blind studies; cited from earlier work
cognitive function = conditions: acutely and chronically administered; cited from earlier work
muscarinic receptors = type: binding, rat; conditions: Table 2
Protocol: The potencies of ligand binding at central muscarinic binding sites were determined by analysis of competition with the specific muscarinic receptor radioligand [^3 H]-quinuclidinyl benzilate ([^3 H]-QNB). […] Competition between various concentrations of putative nicotinic ligand compounds and 0.2 nM [^3 H]-QNB was performed at 25° C. in an assay volume of 1 mL. After 75 minutes, the bound radioligand was separated by vacuum filtration on Whatman GF/B glass fiber filters. Non-specific binding was defined as radioactivity remaining in the presence of 10 μM atropine. Competition curves were analyzed for Ki values as described above for binding to the nicotinic receptor.

[5] = target: neuronal nicotinic receptors; test: Displacement of [3H]-MCC or [3H]-cytisine from neuronal nicotinic receptors, whole rat brain membranes; type: binding
Protocol: Binding of [^3 H]-methylcarbamylcholine ([^3 H]-MCC) or [^3 H]-cytisine ([^3 H]-CYT) to nicotinic receptors was accomplished using crude synaptic membrane preparations from whole rat brain (Snyder and Enna, Brain Research, 1975, 100:81). Washed membranes were stored at -80° C. prior to use. Frozen aliquots were slowly thawed and resuspended in 20 volumes of buffer (containing: 120 mM NaCl, 5 mM KCl, 2 mM MgCl2, 2 mM CaCl2 and 50 mM Tris-Cl, pH 7.4 @4° C). After centrifuging at 20,000 X g for 15 minutes, the pellets were resuspended in 30 volumes of buffer. Homogenate (containing 125-150 μg protein) was added to triplicate tubes containing concentrations of test compound and [^3 H]-MCC (3 nM) in a final volume of 500 μL. Samples were incubated for 60 minutes at 4° C., then rapidly filtered through Whatman GF/B filters presoaked in 0.5% polyethylimine using 3×4 mL of ice-cold buffer. Alternately, homogenate and test compound were incubated for 75 min with [^3 H]-CYT (1.3 nM), then rapidly filtered, as described above. The filters are counted in 4 mL of Ecolume® (ICN). […] IC50 values were determined with the ALLFIT nonlinear least squares curve-fitting program and IC50 values were converted to Ki values using the Cheng and Prusoff correction (Ki =IC50 /(1+[ligand]/Kd of ligand)). Alternately, data were expressed as a percentage of the total specific binding.

Structure (SMILES): CN1C(=O)CN=C(c2ccccc2)c2cc(Cl)ccc21 [Diazepam, diazepam]
- effect on incidence of spike wave discharges (spike wave discharges): significantly lowered these discharges
- effect on ethanol sleep time (known) (ethanol-induced narcosis): potentiate the effect of ethanol by increasing the sleep time

Structure (SMILES): CNC1(C)C2CCC(C2)C1(C)C (stereo not drawn) [Mecamylamine, mecamylamine]
- Total spike wave duration (spike wave discharges; Table 10): 45.7 ± 15.0 s
- Total spike wave duration (spike wave discharges; Table 11): 46.8 ± 6.4 s
- effect on incidence of spike wave discharges (spike wave discharges): did not affect the incidence of spike/wave discharges
- blockade of agonist-induced lowering of spike wave discharges (spike wave discharges; mecamylamine with (-)-nicotine or Example 2): blocked the effects of both (-)-nicotine and the compound of Example 2
- effect on resting cortical perfusion [1]: reduces resting cortical perfusion in the parietotemporal cortex of humans
- inhibition of the response to Example 2 [2]: 81±3%

Structure (SMILES): CCCC(C)C1(CC)C(=O)NC(=O)NC1=O (stereo not drawn) [pentobarbital]
- effect on ethanol sleep time (known) (ethanol-induced narcosis): potentiate the effect of ethanol by increasing the sleep time

Structure (SMILES): CN1CCCC1c1cccnc1 (stereo not drawn) [nicotine]
- up-regulation of number of receptors (nicotinic receptors): 50-100%
- pharmacokinetics [3]: unfavorable pharmacokinetics
- oral bioavailability ([3]; oral): poor oral bioavailability
- suppression of withdrawal signs and symptoms versus placebo [4]: far superior to a placebo
- effect on cognitive function (cognitive function): enhances cognitive function in rats

Structure (SMILES): COC(=O)C1=CCCN(C)C1 [Arecoline, reference compound]
- Ki (muscarinic receptors): 5000 nM
- Ki ([5]; Table 1, read-out: Nicotinic Receptor Ki): 59 nM
- Ki ([5]; Table 2, read-out: Nicotinic Ki): 59 nM
- pharmacokinetics [3]: unfavorable pharmacokinetics
